{
  "source": "paper PMC10845145",
  "about": "“Synergistic Effect of Brevetoxin BTX-3 and Ciguatoxin CTX3C in Human Voltage-Gated Nav1.6 Sodium Channels” (Chemical Research in Toxicology, 2023)",
  "key": {"[1]": {"target": "T1, human Nav1.6 voltage-gated sodium channels (Homo sapiens, UniProt Q9UQD0)", "T1 construct": "host or cells: HEK293", "T1 sequence (Q9UQD0 whole entry, canonical isoform)": "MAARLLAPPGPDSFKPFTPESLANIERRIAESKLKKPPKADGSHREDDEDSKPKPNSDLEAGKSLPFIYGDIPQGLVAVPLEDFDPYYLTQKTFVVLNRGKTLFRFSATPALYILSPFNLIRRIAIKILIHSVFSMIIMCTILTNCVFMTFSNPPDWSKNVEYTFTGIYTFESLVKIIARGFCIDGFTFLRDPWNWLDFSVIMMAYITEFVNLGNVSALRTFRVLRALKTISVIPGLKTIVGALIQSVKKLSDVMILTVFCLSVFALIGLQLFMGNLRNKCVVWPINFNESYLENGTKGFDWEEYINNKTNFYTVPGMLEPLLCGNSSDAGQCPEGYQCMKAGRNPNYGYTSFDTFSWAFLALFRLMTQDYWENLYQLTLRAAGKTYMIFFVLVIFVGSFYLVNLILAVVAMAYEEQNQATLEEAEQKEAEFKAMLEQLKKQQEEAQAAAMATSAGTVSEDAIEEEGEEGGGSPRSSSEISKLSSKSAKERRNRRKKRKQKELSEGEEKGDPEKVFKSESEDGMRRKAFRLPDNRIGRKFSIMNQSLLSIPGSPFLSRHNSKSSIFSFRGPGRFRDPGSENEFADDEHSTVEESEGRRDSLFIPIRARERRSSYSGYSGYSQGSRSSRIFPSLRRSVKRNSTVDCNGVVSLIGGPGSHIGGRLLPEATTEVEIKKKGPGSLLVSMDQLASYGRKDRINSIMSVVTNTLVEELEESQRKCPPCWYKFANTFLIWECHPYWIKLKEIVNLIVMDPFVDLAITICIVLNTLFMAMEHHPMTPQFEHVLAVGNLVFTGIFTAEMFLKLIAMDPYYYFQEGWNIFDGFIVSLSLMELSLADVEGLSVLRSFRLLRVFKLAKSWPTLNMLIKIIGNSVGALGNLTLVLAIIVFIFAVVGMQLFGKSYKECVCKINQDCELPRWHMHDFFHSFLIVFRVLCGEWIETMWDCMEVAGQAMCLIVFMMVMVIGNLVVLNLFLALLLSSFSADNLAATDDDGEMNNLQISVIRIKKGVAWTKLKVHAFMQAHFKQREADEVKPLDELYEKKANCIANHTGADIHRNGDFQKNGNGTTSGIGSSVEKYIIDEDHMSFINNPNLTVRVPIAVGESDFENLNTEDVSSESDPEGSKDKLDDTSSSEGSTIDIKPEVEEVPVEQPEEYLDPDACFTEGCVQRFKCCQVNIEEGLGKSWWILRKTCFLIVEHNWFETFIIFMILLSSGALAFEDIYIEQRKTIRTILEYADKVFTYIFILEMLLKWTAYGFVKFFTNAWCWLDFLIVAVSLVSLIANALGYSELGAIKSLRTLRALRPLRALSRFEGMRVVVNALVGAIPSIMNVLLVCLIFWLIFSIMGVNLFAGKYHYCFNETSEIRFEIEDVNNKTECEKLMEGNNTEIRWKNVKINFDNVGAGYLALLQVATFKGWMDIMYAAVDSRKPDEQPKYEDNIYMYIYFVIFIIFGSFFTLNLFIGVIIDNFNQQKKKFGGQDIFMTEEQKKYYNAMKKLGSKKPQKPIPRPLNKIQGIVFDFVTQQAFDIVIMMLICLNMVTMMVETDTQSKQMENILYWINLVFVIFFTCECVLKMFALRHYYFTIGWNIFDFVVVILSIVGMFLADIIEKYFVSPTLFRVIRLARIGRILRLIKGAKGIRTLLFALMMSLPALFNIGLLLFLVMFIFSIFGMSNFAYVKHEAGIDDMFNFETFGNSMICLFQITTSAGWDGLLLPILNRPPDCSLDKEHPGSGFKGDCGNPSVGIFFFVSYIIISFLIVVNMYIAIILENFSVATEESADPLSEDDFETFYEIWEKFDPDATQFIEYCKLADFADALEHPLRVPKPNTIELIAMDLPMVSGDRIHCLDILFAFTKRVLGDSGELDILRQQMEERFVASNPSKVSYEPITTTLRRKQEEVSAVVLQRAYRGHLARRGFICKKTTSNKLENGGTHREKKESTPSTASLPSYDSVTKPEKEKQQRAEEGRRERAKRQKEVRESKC", "assay": "Whole-cell patch-clamp recording of fast inactivation of sodium channels in HEK293 cells transfected with Nav1.6", "assay_type": "cell-based", "details": "for pIC50: read-out: IC50, hyperpolarizing shift in the inactivation voltage", "procedure": "(§1) The human embryonic kidney cell line (HEK293) transfected with the α subunit of the Nav1.6 sodium channel isoform was kindly provided, under a material transfer agreement, by GlaxoSmithKline R&D (Stevenage, U.K). The cells were cultured in Dulbecco’s modified Eagle’s medium (DMEM)/F12 medium enriched with glutamax, nonessential amino acid solution (MEM, Gibco, 1% w/v), 10% fetal bovine serum, and 0.4 mg/mL Geneticin (G418, Gibco) and maintained at 37 °C in a humidified 95% […]/5% CO2 atmosphere until they reached 80% of confluence, replacing the medium every 2 days. The cells were subcultured in 12-well plates in glass coverslips at a density of 60,000 cells/mL. Twenty-four or 48 h before electrophysiological recordings, the cells were placed at 30 °C to maximize sodium channel expression.[32]\n(§2) For electrophysiological recordings, glass coverslips with cells were placed in a recording chamber with 0.5 mL Lockés buffer as the extracellular solution. Recording electrodes were fabricated with borosilicate glass microcapillaries (1.5 outer diameter) and had resistances ranging from 4 to 10 MΩ. Pipettes were filled with an intracellular solution containing 120 mM CsF, 10 mM EGTA, 10 mM HEPES, and 15 mM NaCl and pH adjusted to 7.25 with CsOH. Voltage-gated sodium currents were recorded at room temperature 5 min after reaching the whole-cell configuration with a Multiclamp 700B amplifier and digitalized with the Digidata 1440A (both from Axon Instruments, California, U.S.A.) maintaining the cells at a holding potential (Vhold) of −55 mV. Signals were sampled at 50 kHz after low-pass Bessel filtering at 10 kHz. Compensation circuitry was used to reduce the series resistance by at least 70%. To record the activation of VGSCs, voltage steps from −80 to +80 mV in 10 mV step increments were applied prior to a test pulse of −90 mV. Fast inactivation was measured at 0 mV after prior test pulses of 300 ms duration ranging from −100 to 0 mV in 10 mV voltage step increments after maintaining the holding potential at −90 mV during 10 ms.\n(§3) All data are expressed as means ± SEMs of n determinations. Data analysis was performed using GraphPad Prism 8. Statistical comparisons were performed using one-way analysis of variance (ANOVA), followed by post hoc Dunnett̀s tests. p values ≤ 0.05 were considered statistically significant, and IC50 values were determined by fitting the data with a log (inhibitor) vs normalized response model.\n(§4) The combination index (CI) was calculated with the Chou–Talalay equation[33] following the formula [drawing 1] 1 where (DX)1 is the IC50 value of CTX3C alone, (DX)2 the IC50 value of BTX-3 alone, and D1 and D2 are the IC50 values of CTX3C and BTX-3, respectively, in combination. According to the Chou–Talalay method, additivity is established if CI = 1, synergism if CI < 1, and antagonism if CI > 1."}, "[2]": {"target": "T1, human Nav1.6 voltage-gated sodium channels", "assay": "Whole-cell patch-clamp recording of sodium current activation (peak INa, activation voltage) in HEK293 cells transfected with Nav1.6", "assay_type": "cell-based", "details": "for +10 nM BTX-3 normalized INa (max) / normalized INa (max): control = –1; for normalized INa (max): CTX3C alone; for shift in the activation voltage for CTX3C: vs control", "procedure": "as §1, §2, §3, §4"}, "[3]": {"target": "rat brain sodium channels", "details": "cited from earlier work; for pKi: binding affinity to rat brain sodium channels, read-out: inhibitory constant (ki)"}},
  "note": "pIC50, pKi: −log10 of the molar value. Like-named read-outs stand apart in the source and are kept apart here.",
  "data": [
    {"smiles": "C=C(CO)CC1CC(O)C2(C)OC3CC4OC5CC6(C)OC7(C)CCC8OC9CC%10(C)OC%11C(C)=CC(=O)OC%11CC%10OC9CC(C)C8OC7CC6OC5(C)C/C=C\\C4OC3CC2O1", "note": "(stereo not shown) [BTX-3, brevetoxin 3]", "values": [
      {"measurement": "pIC50", "setting": "[1]", "result": 5.33},
      {"measurement": "agonist profile on the channels (negative displacement in the activation voltage)", "setting": "[2]", "result": "partial agonist"},
      {"measurement": "decrease in the maximum INa at −20 mV", "setting": "[2]", "result": "21.9 ± 10.9", "unit": "%"},
      {"measurement": "decrease of peak sodium current amplitude", "setting": "[2]", "result": "31.2 ± 15", "unit": "%"},
      {"measurement": "increased potency on the activation voltage after combination", "setting": "[2]", "result": 10, "unit": "times"},
      {"measurement": "maximum INa at −20 mV", "setting": "[2]", "result": "−2887.70 ± 402.0", "unit": "pA"},
      {"measurement": "pIC50", "setting": "[2]; read-out: IC50, negative shift in the activation voltage", "result": 7.34},
      {"measurement": "pIC50", "setting": "[2]; read-out: IC50, percent inhibition of the peak inward sodium currents (INa)", "result": 6.69}
    ]},
    {"smiles": "CC1CC2OC3C(CC2OC2CC4OC5CC=CCC6OC7C=CC8OC9C(CC8OC7CC=CC6OC5CC(O)C4(C)OC2C1)OC1CC=CCOC1C9O)OC1C(C)C(C)C2(CCCO2)OC1C(O)C3C", "note": "(stereo not shown) [CTX3C, ciguatoxin 3C]", "values": [
      {"measurement": "inactivation voltage for CTX3C (V1/2)", "setting": "[1]; [CTX3C] 0.001 nM", "result": "–50.1 ± 4.1 mV"},
      {"measurement": "inactivation voltage for CTX3C (V1/2)", "setting": "[1]; [CTX3C] 0.01 nM", "result": "–47.4 ± 1.4 mV"},
      {"measurement": "inactivation voltage for CTX3C (V1/2)", "setting": "[1]; [CTX3C] 0.1 nM", "result": "–53.4 ± 6.8 mV"},
      {"measurement": "inactivation voltage for CTX3C (V1/2)", "setting": "[1]; [CTX3C] 1 nM", "result": "–54.9 ± 5 mV"},
      {"measurement": "pIC50", "setting": "[1]; single toxin alone", "result": 6.51},
      {"measurement": "agonist profile on the channels (negative displacement in the activation voltage)", "setting": "[2]", "result": "full agonist"},
      {"measurement": "effect on maximum INa peak", "setting": "[2]; 0.17 nM CTX3C", "result": "a decrease of the maximum INa peak was elicited"},
      {"measurement": "effect on the activation voltage", "setting": "[2]; 0.17 nM CTX3C alone", "result": "no changes in the activation voltage were observed"},
      {"measurement": "+10 nM BTX-3 normalized INa (max)", "setting": "[2]; CTX3C 0.0001 nM in the presence of 10 nM BTX-3", "result": "–0.89 ± 0.08"},
      {"measurement": "+10 nM BTX-3 normalized INa (max)", "setting": "[2]; CTX3C 0.001 nM in the presence of 10 nM BTX-3", "result": "–0.89 ± 0.13"},
      {"measurement": "+10 nM BTX-3 normalized INa (max)", "setting": "[2]; CTX3C 0.01 nM in the presence of 10 nM BTX-3", "result": "–0.88 ± 0.13"},
      {"measurement": "+10 nM BTX-3 normalized INa (max)", "setting": "[2]; CTX3C 0.1 nM in the presence of 10 nM BTX-3", "result": "–0.90 ± 0.11"},
      {"measurement": "+10 nM BTX-3 normalized INa (max)", "setting": "[2]; CTX3C 1 nM in the presence of 10 nM BTX-3", "result": "–0.68 ± 0.09"},
      {"measurement": "+10 nM BTX-3 normalized INa (max)", "setting": "[2]; CTX3C 5 nM in the presence of 10 nM BTX-3", "result": "–0.46 ± 0.09"},
      {"measurement": "normalized INa (max)", "setting": "[2]; 0.0001 nM", "result": "–0.79 ± 0.05"},
      {"measurement": "normalized INa (max)", "setting": "[2]; 0.001 nM", "result": "–0.62 ± 0.08"},
      {"measurement": "normalized INa (max)", "setting": "[2]; 0.01 nM", "result": "–0.66 ± 0.09"},
      {"measurement": "normalized INa (max)", "setting": "[2]; 0.1 nM", "result": "–0.63 ± 0.09"},
      {"measurement": "normalized INa (max)", "setting": "[2]; 1 nM", "result": "–0.27 ± 0.07"},
      {"measurement": "normalized INa (max)", "setting": "[2]; 5 nM", "result": "–0.32 ± 0.04"},
      {"measurement": "activation voltage for CTX3C", "setting": "[2]; [CTX3C] 0.0001 nM", "result": "–30.0 ± 0 mV"},
      {"measurement": "shift in the activation voltage for CTX3C", "setting": "[2]; [CTX3C] 0.0001 nM", "result": "0.71 ± 5.4", "unit": "mV"},
      {"measurement": "activation voltage for CTX3C", "setting": "[2]; [CTX3C] 0.001 nM", "result": "–30.0 ± 0 mV"},
      {"measurement": "activation voltage for CTX3C", "setting": "[2]; [CTX3C] 0.01 nM", "result": "–33.3 ± 3.3 mV"},
      {"measurement": "shift in the activation voltage for CTX3C", "setting": "[2]; [CTX3C] 0.01 nM", "result": "–2.62 ± 5.6 mV"},
      {"measurement": "activation voltage for CTX3C", "setting": "[2]; [CTX3C] 0.1 nM", "result": "–39.0 ± 1.8 mV"},
      {"measurement": "shift in the activation voltage for CTX3C", "setting": "[2]; [CTX3C] 0.1 nM", "result": "–8.29 ± 3.3 mV"},
      {"measurement": "activation voltage for CTX3C", "setting": "[2]; [CTX3C] 1 nM", "result": "–46.7 ± 2.9 mV"},
      {"measurement": "activation voltage for CTX3C", "setting": "[2]; [CTX3C] 5 nM", "result": "–51.67 ± 4.8 mV"},
      {"measurement": "shift in the activation voltage for CTX3C", "setting": "[2]; [CTX3C] 5 nM", "result": "–20.95 ± 4.8 mV"},
      {"measurement": "peak sodium current at −10 mV", "setting": "[2]; after bath application of 1 nM CTX3C, control −1156 ± 189 pA", "result": "−692 ± 372", "unit": "pA"},
      {"measurement": "increased potency on the activation voltage after combination", "setting": "[2]; combination of CTX3C and BTX-3 vs each alone", "result": 10, "unit": "times"},
      {"measurement": "pIC50", "setting": "[2]; single toxin alone, read-out: IC50, negative shift in the activation voltage", "result": 8.59},
      {"measurement": "pIC50", "setting": "[2]; single toxin alone, read-out: IC50, percent inhibition of the peak inward sodium currents (INa)", "result": 9.76},
      {"measurement": "pKi", "setting": "[3]", "result": 9.33},
      {"measurement": "higher affinity than that of BTX-3s", "setting": "[3]; binding to VGSC, at concentrations of 1 nM of the compounds", "result": 20, "unit": "fold"}
    ]},
    {"smiles": "C[C@@H]1C[C@@H]2O[C@@H]3[C@@H](C)[C@H](O)[C@@H]4O[C@]5(C[C@H](O)CO5)[C@@H](C)[C@H](C)[C@H]4O[C@H]3C[C@H]2O[C@H]2C[C@H]3O[C@H]4C/C=C\\C[C@H]5O[C@H]6C=C[C@H]7O[C@H]8[C@H](O)[C@H]9O[C@@H](/C=C/[C@H](O)CO)C=CC[C@@H]9O[C@@H]8C[C@@H]7O[C@@H]6C=C[C@@H]5O[C@@H]4C[C@@H](O)[C@]3(C)O[C@@H]2C1", "note": "[ciguatoxin-1B]", "values": [
      {"measurement": "pKi", "setting": "[3]", "result": 10.39},
      {"measurement": "ki difference relative to BTX-1", "setting": "[3]; ciguatoxin-1B vs BTX-1", "result": "more than 50 fold"}
    ]}
  ]
}
